One assay concerns PBMC. The assay is described as follows: Cytotoxicity against human PBMC assessed as induction of cell death by cell Titer-Glo assay. It counts as cell-based.
Assay [1] deals with Tyrosine-protein kinase ABL1 (Homo sapiens) (UniProt P00519). The assay is described as follows: Inhibition of recombinant human full length His-tagged ABL1 expressed in baculovirus expression system at 500 nM by Z-LYTE assay relative to control.
Assay [2] has as its target RAC-alpha serine/threonine-protein kinase (Homo sapiens) (UniProt P31749). The assay is described as follows: Inhibition of recombinant human full length His-tagged AKT1 expressed in baculovirus expression system at 500 nM by Z-LYTE assay relative to control.
Assay [3] deals with Calcium/calmodulin-dependent protein kinase type 1G (Homo sapiens) (UniProt Q96NX5). The assay is described as follows: Inhibition of recombinant human full length GST-tagged CAMK1G expressed in insect cells at 500 nM by Z-LYTE assay relative to control.
Assay [4] addresses Receptor tyrosine-protein kinase erbB-4 (Homo sapiens) (UniProt Q15303). The assay is described as follows: Inhibition of recombinant humans GST-tagged ERBB4 cytoplasmic domain expressed in baculovirus expression system at 500 nM by Z-LYTE assay relative to control.
The target in assay [5] is Serine/threonine-protein kinase mTOR (Homo sapiens) (UniProt P42345). The assay is described as follows: Inhibition of recombinant human GST-tagged mTOR cytoplasmic domain (1360 to 2549 residues) expressed in baculovirus expression system at 500 nM by Z-LYTE assay relative to control.
Assay [6] deals with Tyrosine-protein kinase JAK1 (Homo sapiens) (UniProt P23458). The assay is described as follows: Inhibition of recombinant human GST-tagged JAK1 cytoplasmic domain expressed in baculovirus expression system at 500 nM by Z-LYTE assay relative to control.
Assay [7] concerns the target Vascular endothelial growth factor receptor 2 (Homo sapiens) (UniProt P35968). The assay is described as follows: Inhibition of recombinant human His-tagged KDR cytoplasmic domain (789 to 1356 residues) expressed in baculovirus expression system at 500 nM by Z-LYTE assay relative to control.
Assay [8] deals with Mast/stem cell growth factor receptor Kit (Homo sapiens) (UniProt P10721). The assay is described as follows: Inhibition of recombinant human His-tagged KIT cytoplasmic domain (544 to 976 residues) expressed in baculovirus expression system at 500 nM by Z-LYTE assay relative to control.
Mast/stem cell growth factor receptor Kit (Homo sapiens), sequence (P10721 whole entry, the tested form may be a part): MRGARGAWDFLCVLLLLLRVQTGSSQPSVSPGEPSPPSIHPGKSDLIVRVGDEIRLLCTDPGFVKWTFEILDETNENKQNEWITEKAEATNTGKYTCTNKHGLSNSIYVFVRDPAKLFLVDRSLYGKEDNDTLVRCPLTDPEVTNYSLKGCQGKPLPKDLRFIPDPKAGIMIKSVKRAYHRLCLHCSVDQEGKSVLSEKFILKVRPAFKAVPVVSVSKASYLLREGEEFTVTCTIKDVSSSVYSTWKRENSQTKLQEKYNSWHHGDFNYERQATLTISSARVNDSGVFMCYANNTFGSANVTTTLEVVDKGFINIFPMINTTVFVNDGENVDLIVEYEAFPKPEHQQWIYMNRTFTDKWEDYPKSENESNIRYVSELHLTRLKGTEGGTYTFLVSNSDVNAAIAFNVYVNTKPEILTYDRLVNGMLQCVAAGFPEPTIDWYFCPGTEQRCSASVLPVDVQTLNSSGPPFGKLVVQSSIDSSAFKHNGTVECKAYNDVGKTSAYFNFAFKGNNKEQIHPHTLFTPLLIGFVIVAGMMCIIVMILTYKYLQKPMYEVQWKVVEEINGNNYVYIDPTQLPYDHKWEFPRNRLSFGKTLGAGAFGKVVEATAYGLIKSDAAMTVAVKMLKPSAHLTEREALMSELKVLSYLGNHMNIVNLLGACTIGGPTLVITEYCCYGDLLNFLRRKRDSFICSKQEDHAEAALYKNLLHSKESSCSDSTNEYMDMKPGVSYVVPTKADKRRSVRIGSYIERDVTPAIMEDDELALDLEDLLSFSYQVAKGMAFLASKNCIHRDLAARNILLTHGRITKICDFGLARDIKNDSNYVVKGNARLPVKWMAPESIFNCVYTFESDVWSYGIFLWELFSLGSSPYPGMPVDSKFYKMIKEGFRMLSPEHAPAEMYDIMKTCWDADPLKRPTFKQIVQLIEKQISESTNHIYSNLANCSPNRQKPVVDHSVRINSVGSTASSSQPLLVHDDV
Assay [9] concerns the target Tyrosine-protein kinase Lyn (Homo sapiens) (UniProt P07948). The assay is described as follows: Inhibition of recombinant human full-length N-terminal GST-tagged LYN-A expressed in insect cells at 500 nM by Z-LYTE assay relative to control.
For assay [10], the target named is Dual specificity mitogen-activated protein kinase kinase 1 (Homo sapiens) (UniProt Q02750). The assay is described as follows: Inhibition of recombinant human full length His-tagged MEK1 expressed in baculovirus expression system at 500 nM by Z-LYTE assay relative to control.
For assay [11], the target named is T1, Dual specificity mitogen-activated protein kinase kinase 6 (Homo sapiens) (UniProt P52564).
T1 sequence (whole entry): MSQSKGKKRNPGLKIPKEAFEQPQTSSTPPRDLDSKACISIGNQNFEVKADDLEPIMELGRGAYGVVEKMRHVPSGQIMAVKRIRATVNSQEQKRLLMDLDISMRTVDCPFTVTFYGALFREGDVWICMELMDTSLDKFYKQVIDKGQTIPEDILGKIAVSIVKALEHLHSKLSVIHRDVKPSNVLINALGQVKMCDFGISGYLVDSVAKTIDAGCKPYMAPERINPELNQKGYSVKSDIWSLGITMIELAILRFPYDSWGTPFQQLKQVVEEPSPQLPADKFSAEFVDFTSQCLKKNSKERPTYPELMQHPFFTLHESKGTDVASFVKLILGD
The assay is described as follows: Inhibition of recombinant human full length His-tagged MKK6 expressed in baculovirus expression system at 500 nM by Z-LYTE assay relative to control.

In assay [12] the target is T2, Mitogen-activated protein kinase 12 (Homo sapiens) (UniProt P53778).
T2 sequence (whole entry): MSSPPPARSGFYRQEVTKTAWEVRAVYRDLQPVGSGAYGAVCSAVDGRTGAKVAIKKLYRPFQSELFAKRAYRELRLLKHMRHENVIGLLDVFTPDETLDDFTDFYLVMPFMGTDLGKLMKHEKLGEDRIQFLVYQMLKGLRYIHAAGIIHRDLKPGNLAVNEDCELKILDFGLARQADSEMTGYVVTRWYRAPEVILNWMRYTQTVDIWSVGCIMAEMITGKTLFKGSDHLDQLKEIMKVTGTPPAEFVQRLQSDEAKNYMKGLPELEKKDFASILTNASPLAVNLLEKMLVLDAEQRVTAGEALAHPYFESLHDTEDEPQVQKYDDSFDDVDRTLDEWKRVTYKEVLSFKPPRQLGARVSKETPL
The assay is described as follows: Inhibition of recombinant human full length His-tagged p38-gamma expressed in baculovirus expression system at 500 nM by Z-LYTE assay relative to control.

Assay [13] addresses Mitogen-activated protein kinase 8 (Homo sapiens) (UniProt P45983). The assay is described as follows: Inhibition of recombinant human full length His-tagged JNK1 expressed in baculovirus expression system at 500 nM by Z-LYTE assay relative to control.
The target in assay [14] is Hepatocyte growth factor receptor (Homo sapiens) (UniProt P08581). The assay is described as follows: Inhibition of recombinant truncated human His-tagged MET expressed in mammalian expression system at 500 nM by Z-LYTE assay relative to control.
Hepatocyte growth factor receptor (Homo sapiens), sequence (P08581 whole entry, the tested form may be a part): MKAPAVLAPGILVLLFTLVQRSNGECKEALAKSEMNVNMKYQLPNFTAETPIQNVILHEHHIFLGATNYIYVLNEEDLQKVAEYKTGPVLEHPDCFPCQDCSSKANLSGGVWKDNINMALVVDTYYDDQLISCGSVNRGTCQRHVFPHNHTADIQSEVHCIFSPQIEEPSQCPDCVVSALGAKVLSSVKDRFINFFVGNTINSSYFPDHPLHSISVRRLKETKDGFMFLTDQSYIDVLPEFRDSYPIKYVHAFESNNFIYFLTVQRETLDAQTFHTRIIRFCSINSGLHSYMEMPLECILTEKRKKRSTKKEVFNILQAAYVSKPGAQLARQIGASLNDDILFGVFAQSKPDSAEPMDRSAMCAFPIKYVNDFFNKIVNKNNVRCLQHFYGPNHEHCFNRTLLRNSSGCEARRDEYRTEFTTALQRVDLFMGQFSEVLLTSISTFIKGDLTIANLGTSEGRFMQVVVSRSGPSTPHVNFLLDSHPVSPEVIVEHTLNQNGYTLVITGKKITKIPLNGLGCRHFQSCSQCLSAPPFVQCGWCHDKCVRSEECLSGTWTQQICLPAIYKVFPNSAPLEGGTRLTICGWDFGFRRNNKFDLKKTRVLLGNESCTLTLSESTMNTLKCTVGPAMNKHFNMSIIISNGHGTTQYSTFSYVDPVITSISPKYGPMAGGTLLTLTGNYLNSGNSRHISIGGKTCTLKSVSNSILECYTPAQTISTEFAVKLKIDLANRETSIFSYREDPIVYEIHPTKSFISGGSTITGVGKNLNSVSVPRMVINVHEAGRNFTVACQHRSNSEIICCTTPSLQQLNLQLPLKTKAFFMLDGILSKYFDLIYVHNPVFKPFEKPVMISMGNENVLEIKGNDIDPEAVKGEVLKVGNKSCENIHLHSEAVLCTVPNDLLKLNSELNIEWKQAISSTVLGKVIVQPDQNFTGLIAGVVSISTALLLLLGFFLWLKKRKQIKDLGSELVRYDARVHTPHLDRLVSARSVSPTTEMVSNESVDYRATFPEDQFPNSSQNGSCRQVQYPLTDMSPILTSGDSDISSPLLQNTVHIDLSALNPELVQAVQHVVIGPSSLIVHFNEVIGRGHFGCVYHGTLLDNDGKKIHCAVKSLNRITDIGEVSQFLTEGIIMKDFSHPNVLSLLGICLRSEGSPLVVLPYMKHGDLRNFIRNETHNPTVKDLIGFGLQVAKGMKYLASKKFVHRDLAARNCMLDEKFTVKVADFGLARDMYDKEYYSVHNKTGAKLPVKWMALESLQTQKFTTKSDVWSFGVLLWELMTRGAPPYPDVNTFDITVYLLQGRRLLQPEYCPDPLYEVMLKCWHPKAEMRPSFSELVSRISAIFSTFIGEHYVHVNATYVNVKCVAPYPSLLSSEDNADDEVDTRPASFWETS
Assay [15] has as its target Serine/threonine-protein kinase PAK 2 (Homo sapiens) (UniProt Q13177). The assay is described as follows: Inhibition of recombinant human full length GST-tagged PAK2 expressed in baculovirus expression system at 500 nM by Z-LYTE assay relative to control.
Assay [16] addresses PI3K p110 beta/p85 alpha (Homo sapiens) (UniProt P27986+P42338). The assay is described as follows: Inhibition of PI3K p110beta/p85alpha (unknown origin) at 500 nM by Z-LYTE assay relative to control. Type of assay: protein-complex assay.
The target in assay [17] is Serine/threonine-protein kinase pim-1 (Homo sapiens) (UniProt P11309). The assay is described as follows: Inhibition of recombinant full length human His-tagged PIM1 expressed in baculovirus expression system at 500 nM by Z-LYTE assay relative to control.
Assay [18] concerns the target Protein kinase C alpha type (Homo sapiens) (UniProt P17252). The assay is described as follows: Inhibition of recombinant human full length untagged PKCalpha expressed in baculovirus expression system at 500 nM by Z-LYTE assay relative to control.
The target of assay [19] is Proto-oncogene tyrosine-protein kinase receptor Ret (Homo sapiens) (UniProt P07949). The assay is described as follows: Inhibition of recombinant human GST-tagged RET cytoplasmic domain expressed in baculovirus expression system at 500 nM by Z-LYTE assay relative to control.
Assay [20] addresses Proto-oncogene tyrosine-protein kinase Src (Homo sapiens) (UniProt P12931). The assay is described as follows: Inhibition of human full length Src expressed in baculovirus expression system at 500 nM by Z-LYTE assay relative to control.
Assay [21] concerns the target Tyrosine-protein kinase Yes (Homo sapiens) (UniProt P07947). The assay is described as follows: Inhibition of human full length GST-tagged YES1 expressed in baculovirus expression system at 500 nM by Z-LYTE assay relative to control.

Molecules are shown by their SMILES.

Tyrosine-protein kinase Lyn (Homo sapiens), sequence (P07948 2-512 limits assumed): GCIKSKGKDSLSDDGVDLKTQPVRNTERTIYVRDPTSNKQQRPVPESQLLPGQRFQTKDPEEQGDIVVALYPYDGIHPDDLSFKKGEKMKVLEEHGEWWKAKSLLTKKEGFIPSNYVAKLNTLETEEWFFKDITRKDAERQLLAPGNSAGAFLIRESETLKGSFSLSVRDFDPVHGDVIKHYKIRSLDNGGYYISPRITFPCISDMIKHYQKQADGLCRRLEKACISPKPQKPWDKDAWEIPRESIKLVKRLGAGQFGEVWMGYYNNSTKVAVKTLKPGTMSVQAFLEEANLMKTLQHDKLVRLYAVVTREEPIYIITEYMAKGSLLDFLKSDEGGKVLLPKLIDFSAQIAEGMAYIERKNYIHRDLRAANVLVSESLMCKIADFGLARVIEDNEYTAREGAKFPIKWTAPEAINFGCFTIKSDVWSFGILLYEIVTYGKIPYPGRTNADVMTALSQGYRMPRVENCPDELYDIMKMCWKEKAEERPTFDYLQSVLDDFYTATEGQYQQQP
Proto-oncogene tyrosine-protein kinase Src (Homo sapiens), sequence (P12931 2-536 limits assumed): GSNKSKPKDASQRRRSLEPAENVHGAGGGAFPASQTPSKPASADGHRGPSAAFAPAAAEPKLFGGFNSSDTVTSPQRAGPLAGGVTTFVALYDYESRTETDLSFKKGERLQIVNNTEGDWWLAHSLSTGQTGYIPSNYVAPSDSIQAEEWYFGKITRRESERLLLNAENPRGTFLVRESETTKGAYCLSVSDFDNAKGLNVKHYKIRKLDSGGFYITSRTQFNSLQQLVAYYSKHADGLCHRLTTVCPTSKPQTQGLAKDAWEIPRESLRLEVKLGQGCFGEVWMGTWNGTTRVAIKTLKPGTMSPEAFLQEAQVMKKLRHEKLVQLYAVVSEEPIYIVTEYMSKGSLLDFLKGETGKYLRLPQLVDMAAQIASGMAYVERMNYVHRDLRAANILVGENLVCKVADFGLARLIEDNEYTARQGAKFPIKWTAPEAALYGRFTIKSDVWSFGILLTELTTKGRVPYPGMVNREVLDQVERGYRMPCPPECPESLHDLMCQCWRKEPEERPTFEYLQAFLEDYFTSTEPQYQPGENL
Tyrosine-protein kinase Yes (Homo sapiens), sequence (P07947 2-543 limits assumed): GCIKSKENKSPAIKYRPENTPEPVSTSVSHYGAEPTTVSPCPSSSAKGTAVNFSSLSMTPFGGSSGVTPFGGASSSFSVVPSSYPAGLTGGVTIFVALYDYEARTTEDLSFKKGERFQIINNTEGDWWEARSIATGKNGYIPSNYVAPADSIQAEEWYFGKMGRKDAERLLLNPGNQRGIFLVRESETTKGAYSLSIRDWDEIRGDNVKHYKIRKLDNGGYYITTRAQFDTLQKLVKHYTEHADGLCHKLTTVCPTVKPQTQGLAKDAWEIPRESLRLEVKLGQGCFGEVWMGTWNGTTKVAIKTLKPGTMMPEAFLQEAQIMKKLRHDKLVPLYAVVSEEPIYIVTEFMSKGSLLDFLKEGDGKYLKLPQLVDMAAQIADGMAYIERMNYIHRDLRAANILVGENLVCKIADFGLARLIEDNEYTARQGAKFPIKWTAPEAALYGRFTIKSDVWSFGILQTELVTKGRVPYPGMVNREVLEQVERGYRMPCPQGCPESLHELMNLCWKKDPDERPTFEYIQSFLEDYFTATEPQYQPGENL
Mitogen-activated protein kinase 8 (Homo sapiens), sequence (P45983 whole entry, the tested form may be a part): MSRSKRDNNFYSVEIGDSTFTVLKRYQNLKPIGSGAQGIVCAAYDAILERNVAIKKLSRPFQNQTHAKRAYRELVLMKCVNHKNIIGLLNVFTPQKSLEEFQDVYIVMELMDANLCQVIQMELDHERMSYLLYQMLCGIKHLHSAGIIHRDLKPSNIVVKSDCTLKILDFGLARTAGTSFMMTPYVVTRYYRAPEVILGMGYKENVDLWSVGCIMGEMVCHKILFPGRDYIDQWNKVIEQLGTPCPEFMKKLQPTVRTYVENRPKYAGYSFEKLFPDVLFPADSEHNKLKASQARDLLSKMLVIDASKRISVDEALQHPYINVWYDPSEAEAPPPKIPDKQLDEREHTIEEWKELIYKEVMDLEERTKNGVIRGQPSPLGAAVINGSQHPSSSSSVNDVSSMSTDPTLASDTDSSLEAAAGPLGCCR
Serine/threonine-protein kinase PAK 2 (Homo sapiens), sequence (Q13177 whole entry): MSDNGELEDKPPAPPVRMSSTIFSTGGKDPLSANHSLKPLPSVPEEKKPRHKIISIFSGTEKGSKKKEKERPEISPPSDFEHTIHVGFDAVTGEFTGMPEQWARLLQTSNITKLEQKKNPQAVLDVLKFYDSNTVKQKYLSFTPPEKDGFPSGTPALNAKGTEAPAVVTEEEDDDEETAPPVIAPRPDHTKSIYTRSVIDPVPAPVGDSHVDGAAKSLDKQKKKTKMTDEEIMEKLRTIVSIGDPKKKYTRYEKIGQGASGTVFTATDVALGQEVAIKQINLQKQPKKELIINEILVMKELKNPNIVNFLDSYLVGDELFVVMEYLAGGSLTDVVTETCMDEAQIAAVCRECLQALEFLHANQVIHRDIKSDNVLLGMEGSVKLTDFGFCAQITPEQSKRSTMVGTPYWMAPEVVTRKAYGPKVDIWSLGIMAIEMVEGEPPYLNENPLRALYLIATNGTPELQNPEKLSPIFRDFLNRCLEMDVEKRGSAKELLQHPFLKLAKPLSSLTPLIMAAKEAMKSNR

Turning to `CCC(=O)Nc1ccc(-c2c[nH]c3ncnc(N[C@H](C)c4ccccc4)c23)cc1`, the IC50 with PBMC was above 10 µM. Also, the inhibition was 5% in assay [1]; -4% in assay [2]; 1% in [3]; 12% in assay [4]; 11% in assay [5]; 3% in assay [6]. In addition, the inhibition in assay [7] was 7%; in assay [8], -3%; in [9], 14%; in assay [10], 15%; in [11], 8%; in [12], 10%. For the same compound, the inhibition in assay [13] worked out at 4%; in assay [14] it was 6%; in assay [15] it was 5%; in assay [16], 11%; in assay [17], 1%; in assay [18], 21%. The inhibition stood at 23% in [19], 16% in [20] and 9% in assay [21].

Take `OCc1ccc(-c2cc3c(N[C@H](CO)c4ccccc4)ncnc3[nH]2)cc1`: the IC50 with PBMC was above 10 µM. Moreover, the inhibition in assay [1] was 84%; in assay [2], -4%; in assay [3], 0%; in assay [4], 71%; in [5], 12%; in assay [6], -1%. Also, the inhibition in assay [7] is 38%; in assay [8] it was -1%; in [9], 74%; in assay [10], 10%; in assay [11], 3%; in [12] it was 12%. Moreover, the inhibition in [13] was -3%; in assay [14], 14%; in assay [15] it was 5%; in assay [16] it was 4%; in [17], 7%; in assay [18] it was 6%. Further, the values for the inhibition in assay [19], in [20] and in assay [21] were 41%, 74% and 81%, respectively.

On to `OC[C@@H](Nc1ncnc2sc(-c3ccc(O)cc3)cc12)c1ccccc1`, for which, in the assay with PBMC, the IC50 is above 30 µM. For the same compound, the inhibition is 8% in [1]; -1% in [2]; 1% in assay [3]; 20% in [4]; 7% in [5]; -2% in [6]. For the same compound, the inhibition in [7] was 20%; in assay [8], 15%; in assay [9], 21%; in assay [10], 21%; in [11], 11%; in assay [12], 0%. Besides, the inhibition in [13] was 19%; in assay [14], 1%; in assay [15] it was 5%; in assay [16], 1%; in [17], 11%; in [18] it was 0%. Also, the results for the inhibition in [19] and in assay [21] were 12% and 13%, respectively.

As to `CN(C)CCn1cc(-c2cccc(O)c2)c2c(N)ncnc21`, the IC50 with PBMC is above 10 µM. For the same compound, the inhibition in assay [1] is 69%; in [2] it was 0%; in [3] it was 1%; in assay [4], 3%; in assay [5], 14%; in assay [6], 3%. Also, the inhibition in assay [7] was 17%; in assay [8], -2%; in assay [9], 28%; in assay [10], 6%; in [11], 5%; in [12], 10%. The inhibition in assay [13] amounted to 3%; in assay [14], 4%; in assay [15], 6%; in assay [16] it was 12%; in assay [17], 9%; in assay [18] it was 15%. For the same compound, the figures for the inhibition in [19], in [20] and in assay [21] were 93%, 55% and 65%, respectively.

The values above are taken from ChEMBL document CHEMBL4152312, “Identification of fused pyrimidines as interleukin 17 secretion inhibitors” (Eur J Med Chem, 2018).
